Experimental data: US5514814A, “Pyrrolinone-based compounds” (Trustees of the University of Pennsylvania, priority 1994, dated 1996)

How the values were obtained:
Assay type in all cases: biochemical
HIV-1 protease = target: T1, HIV-1 protease (Human immunodeficiency virus type 1 group M subtype B, UniProt P12497); test: Inhibition of purified HIV-1 protease (IC50); settings: HIV-1 protease purified generally according to Heimbach, et al.
T1 construct: HIV-1 protease purified generally according to Heimbach; made in house
Experimental: The extent to which the compounds of the invention for inhibit and prevent the spread of HIV-1 protease was determined generally according to the methods disclosed by Thompson, et al., J. Med. Chem. 1992, 35, 1685. IC50 and CIC95 values were determined using HIV-1 protease purified generally according to Heimbach, et al., Biochem. Biophys. Res. Commun. 1989, 164, 955.

renin = test: Effective renin inhibitor at stated concentration
HIV1 = HIV1 (Human immunodeficiency virus type 1 (NEW YORK-5 ISOLATE), UniProt P12497); test: Effective HIV1 inhibitor at stated concentration

Row | SMILES | IC50 (HIV-1 protease) [nM] | also measured
1 | COC(=O)[C@H](Cc1ccccc1)C1=CN[C@@](CC(C)C)(C2=CN[C@@](Cc3ccccc3)(C[C@H](O)[C@H](Cc3ccccc3)NC(=O)OC(C)(C)C)C2=O)C1=O [(59)] | 37 | –
2 | CC(C)C[C@@]1(C2=CN[C@@](Cc3ccccc3)(C[C@H](O)[C@H](Cc3ccccc3)NC(=O)O[C@H]3CCOC3)C2=O)NC=C([C@@H](Cc2ccccc2)C(N)=O)C1=O [(49)] | 1.3 | –
3 | O=C(N[C@@H](Cc1ccccc1)[C@@H](O)C[C@]1(Cc2ccccc2)NC=C([C@H]2c3ccccc3C[C@H]2O)C1=O)O[C@H]1CCOC1 [(67)] | 2 | –
4 | CC(C)=CCC1(Cc2ccccc2)NC=C(C(CC(C)C)C(=O)NC(CC2CCCCC2)C(O)C(O)CC(C)C)C1=O [Structure (10a), 5(S)-prenyl-(5-benzyl)pyrrolin-4-one-3!-2(R)-isobutylacetate-1-amino-1(S)-cyclohexylmethyl-2(R)3 3 (S)-dihydroxy-5-methylhexane!-amide] | – | found to act as an effective renin inhibitor at (concentration) (renin): 700 nM
5 | CC(C)CC1(C2=CNC(Cc3ccccc3)(CC(O)C(Cc3ccccc3)NC(=O)OC(C)(C)C)C2=O)NC=C(C(Cc2ccccc2)C(N)=O)C1=O (stereo not shown) [(11)] | 10 | –
6 | COC(=O)[C@H](Cc1ccccc1)C1=CN[C@@](CC(C)C)(C2=CN[C@@](Cc3ccccc3)(C[C@H](O)[C@H](Cc3ccccc3)NC(=O)O[C@H]3CCOC3)C2=O)C1=O [(58)] | 2 | –
7 | CC(C)(C)OC(=O)N[C@@H](Cc1ccccc1)[C@@H](O)C[C@]1(Cc2ccccc2)NC=C([C@H]2c3ccccc3C[C@H]2O)C1=O [(68)] | 11.9 | –
8 | CC(C)C[C@@]1(C2=CN[C@@](Cc3ccccc3)(C[C@H](O)[C@H](Cc3ccccc3)NC(=O)O[C@H]3CCOC3)C2=O)NC=C([C@@H](Cc2ccccc2)C(=O)NC(C)(C)C)C1=O [(53)] | 3.3 | –
9 | CC(C)=CCC1(Cc2ccccc2)NC=C(C2(CC(C)C)NC=C(C(CC3CCCCC3)C(O)C(O)CC(C)C)C2=O)C1=O (stereo not shown) [Structure (9a)] | – | found to act as effective HIV1 inhibitor at (concentration) (HIV1): 3.5 µM
10 | CC(C)C[C@@]1(C2=CN[C@@](Cc3ccccc3)(C[C@H](O)[C@H](Cc3ccccc3)NC(=O)OC(C)(C)C)C2=O)NC=C([C@@H](Cc2ccccc2)C(=O)NC(C)(C)C)C1=O [(54)] | 48 | –
